Values after ≈ are worked out from the molar mass of the structure shown.
Tests used:
[1] = test system: Propionibacterium acnes 79; assay: Susceptibility of anaerobic bacteria, agar dilution; format: cell-based; settings: Cutibacterium acnes, 79, 24 h, read-out: 24 Hr. Minimum Inhibitory Concentration
Actinomyces bovis 13684 = assay: as above; format: cell-based; settings: Actinomyces bovis, 13684, 24 h, read-out: 24 Hr. Minimum Inhibitory Concentration
[2] = test system: Bacteroides fragilis sp. vulgatus 1563; assay: as above; format: cell-based; settings: Bacteroides fragilis, 24 h, read-out: 24 Hr. Minimum Inhibitory Concentration
[3] = test system: Bacteroides fragilis sp. fragilis 1936B; assay: as above; format: cell-based; settings: Bacteroides fragilis, 24 h, read-out: 24 Hr. Minimum Inhibitory Concentration
[4] = test system: Fusobacterium symbiosum 1470; assay: as above; format: cell-based; settings: Fusobacterium, 1470, 24 h, read-out: 24 Hr. Minimum Inhibitory Concentration
[5] = test system: Bacteroides fragilis sp. fragilis 1877; assay: as above; format: cell-based; settings: Bacteroides fragilis, 24 h, read-out: 24 Hr. Minimum Inhibitory Concentration
[6] = test system: Bacteroides fragilis sp. thetaiotaomicron 1438; assay: as above; format: cell-based; settings: Bacteroides fragilis, 24 h, read-out: 24 Hr. Minimum Inhibitory Concentration
[7] = test system: Clostridium innocuum 1373; assay: as above; format: cell-based; settings: [Clostridium] innocuum, 1373, 24 h, read-out: 24 Hr. Minimum Inhibitory Concentration
[8] = test system: Fusobacterium necrophorum 13859; assay: as above; format: cell-based; settings: Fusobacterium necrophorum, 13859, 24 h, read-out: 24 Hr. Minimum Inhibitory Concentration
[9] = test system: Peptostreptococcus intermedius 1264; assay: as above; format: cell-based; settings: 24 h; Peptostreptococcus intermedius 1264; read-out: 24 Hr. Minimum Inhibitory Concentration
[10] = test system: Bacteroides fragilis sp. vulgatus 1211; assay: as above; format: cell-based; settings: Bacteroides fragilis, 24 h, read-out: 24 Hr. Minimum Inhibitory Concentration
Salmonella typhimurium = assay: Control of infections caused by Salmonella typhimurium in chickens, subcutaneous (Experiment 2); format: in vivo; settings: Salmonella enterica, sc, 144 h, 6 days, read-out: Survival Ratio (converted)
Protocol: The efficacy of the novel compounds in the control of infections caused by Salmonella typhimurium in chickens was evaluated in the following manner.
The test was carried out using day-old chicks weighing approximately 35 g. each. The chicks were divided into groups of 5 chicks per each dosage level. A portion of the chicks received the test compound which was suspended in 0.2 ml. of polyethylene glycol 200 and administered subcutanusly in the neck. […] All the chicks were challenged with a 1:200 dilution of a culture of the organism, 0.1 ml. of the dilution being injected into each chick in the leg intramuscularly. […] The test compounds are identified in the same manner as set forth in Experiment 1.
In the chart, column 1 lists the compounds tested; column 2, the dosage of test compound in mg./kg.; and column 3, the survival ratio.

[11] = test system: Eubacterium aerofaciens 1235; assay: Susceptibility of anaerobic bacteria, agar dilution; format: cell-based; settings: Collinsella aerofaciens, 1235, 24 h, read-out: 24 Hr. Minimum Inhibitory Concentration
[12] = test system: Peptococcus anaerobius 1428; assay: as above; format: cell-based; settings: 24 h, read-out: 24 Hr. Minimum Inhibitory Concentration
[13] = test system: Veillonella alcalescens 1; assay: as above; format: cell-based; settings: Veillonella parvula, 1, 24 h, read-out: 24 Hr. Minimum Inhibitory Concentration
[14] = test system: Clostridium perfringens 81; assay: microbe, parasite or virus in culture; format: cell-based; settings: Clostridium perfringens, 81, 24 h, read-out: 24 Hr. Minimum Inhibitory Concentration
Clostridium ramosum 1313 = assay: Susceptibility of anaerobic bacteria, agar dilution; format: cell-based; settings: Thomasclavelia ramosa, 1313, 24 h, read-out: 24 Hr. Minimum Inhibitory Concentration
[15] = test system: Propionibacterium acnes 44; assay: as above; format: cell-based; settings: Cutibacterium acnes, 24 h; Propionibacterium acnes 44; read-out: 24 Hr. Minimum Inhibitory Concentration
[16] = test system: Clostridium septicum 1128; assay: as above; format: cell-based; settings: 24 h, read-out: 24 Hr. Minimum Inhibitory Concentration
[17] = test system: Clostridium septicum bovine; assay: as above; format: cell-based; settings: 24 h, read-out: 24 Hr. Minimum Inhibitory Concentration

For CC=CC=Nc1c(C#N)c(-c2ncc([N+](=O)[O-])n2C)nn1C [Compound 18, 5-(2-butenylideneamino)-1-methyl-3-(1-methyl-5-nitro-2-imidazolyl)pyrazole-4-carbonitrile], the MIC [1] was less than 0.125 µg/mL, the MIC (Actinomyces bovis 13684) was less than 0.125 µg/mL and the MIC [2] was less than 0.125 µg/mL. For the same molecule, the MIC [3] was less than 0.125 µg/mL, the MIC [4] was less than 0.125 µg/mL and the MIC [5] was less than 0.125 µg/mL. It also gave an MIC [6] of less than 0.125 µg/mL, an MIC [7] of less than 0.125 µg/mL and an MIC [8] of less than 0.125 µg/mL. The MIC [9] was 0.25 µg/mL (≈ 0.835 µM), the MIC [10] was less than 0.125 µg/mL and the responders at 7.5 mg/kg (Salmonella typhimurium; 7.5 mg./kg. subcutaneous) was 0%. It also gave a responders at 15 mg/kg (Salmonella typhimurium; 15 mg./kg. subcutaneous) of 53.3%, a responders at 30 mg/kg (Salmonella typhimurium; 30 mg./kg. subcutaneous) of 66.7% and a responders at 60 mg/kg (Salmonella typhimurium; 60 mg./kg. subcutaneous) of 66.7%. For the same molecule, the MIC [11] was less than 0.125 µg/mL, the MIC [12] was less than 0.125 µg/mL and the MIC [13] was less than 0.125 µg/mL. For the same molecule, the MIC [14] was less than 0.125 µg/mL, the MIC (Clostridium ramosum 1313) was less than 0.125 µg/mL and the MIC [15] was greater than 32 µg/mL. For the same molecule, the MIC [16] was less than 0.125 µg/mL and the MIC [17] was less than 0.125 µg/mL.

From US3980794A, “Method for promoting growth of poultry with 3-(5-nitro-2-imidazolyl)pyrazoles” (Eli Lilly and Company, priority 1975, dated 1976)
